Data set [1] has as its system TNF-α. As to the kind of experiment: TNF-α gene expression in LPS-induced RAW 264.7 macrophages (qPCR). It counts as cell-based, murine. How it is done: RAW 264.7 cells at passage 3 were seeded at 1 × 10^5 cells/mL to each well of a 6-well cell culture plate. The cells were cultured until it reached 70−80 % confluency and media were changing every 2 days. Upon confluency, removed the old media and cells were pre-treated with 1 mL non-serum media for 10−15 min in the incubator. All controls and samples, dilutions are prepared in non-serum media. Removed non-serum media and added with LPS (1 μg/mL) in non-serum media for 24 h. Next day, removed the LPS containing media and washed once with 1 × PBS and then the cells were treated with SFN solutions for 1 h. Removed the treatment solution, washed twice with 1 × PBS, pH 7.4. The cells were dissociated and collected by sedimentation (1500 rpm, 6 min).
The total RNA content was extracted following the TRIzol method according to the manufacturer's protocol. Quantification of mRNAs abundance was determined using 1-step reverse transcription real-time quantitative PCR with the QuantiTect SYBR Green RT-PCR Kit (Qiagen, Germany), performed on a Rotor-Gene Q Real-Time system (Qiagen, Germany). […] Target gene expression was normalized to constitutively expressed ACT-β gene, and the relative quantity of target gene mRNAs was expressed as 2^−ΔΔCt using the relative comparative threshold cycle method as previously described [[33], [34], [35]]. […]
In general terms: In qPCR the cycle at which signal appears reflects the starting amount.

For data set [2], the system named is Aβ1-42-induced AD mice. As to the kind of experiment: Brain tissue TUNEL assay (hippocampal apoptosis). The following applies: Aβ1-42 AD mice; SFN 10 mg/kg oral; AD group 40.3 ± 10.4. It counts as in vivo, ICR male mice. The source says: (§1) Seven-week-old ICR male mice (25−30 g body weight range) were purchased from the Samtaco BIO, KOREA (Osan-si, Gyeonggi-do, Korea). […] All efforts were made to minimize suffering and the number of animals used. One day before dissection, only water was provided and food was fasted. Acclimatized experimental animals were grouped into seven containing 7 mice each (Table 1 and Fig. 1).
(§2) Prepare the test substance at a concentration appropriate for each test using purified water. […] Amyloid beta (Aβ1-42) was prepared and administered following standard protocols. BSEP was orally administered at doses of 200 mg/kg/day and 400 mg/kg/day for one week before and after Aβ1-42 injection, each at a volume of 200 μL. Following intravenous administration, broccoli extract was orally administered at the same doses for two weeks.
(§3) Aβ1-42 ([…]) was surgically injected into the brain ventricle of anesthetized mice (intravenous [IV] injection of xylazine [5 mg/kg] and ketamine [50 mg/kg]). The skull was precisely punctured at specific coordinates using a small drill, and amyloid beta was injected deeply into the brain using a microinjector. The control group underwent the same procedure with saline injections instead. Following surgery, the incision sites were disinfected and sutured, and the animals were allowed to recover in a cage.

Data set [3] relates to Aβ1-42-induced AD mice. As to the kind of experiment: Morris water maze test. It counts as in vivo, ICR male mice. The following applies: Aβ1-42 AD mice; for average escape latency time over the three days: AD group 42.7 ± 9.13, normal 27.66 ± 3.97.
Source text: as §1, §2, §3
(§4) The water maze test evaluates the spatial memory of experimental animals by filling a circular pool (120 cm diameter × 60 cm hight) with water to a depth of 30 cm (maintained at 23 ± 2 °C). An escape zone (10 cm diameter) is designated in one section of the four quadrants, with the platform positioned 1 cm below the water surface and made invisible with skim milk powder. If the animal fails to locate the platform within 60 s, it is gently guided there and allowed to familiarize itself for 20 s. The test is conducted at 30-min intervals, four times daily for three consecutive days. Observations are recorded using a ceiling-mounted camera and analyzed using SMART 3.0 software (Panlab S.L., Barcelona, Spain).

The test system of data set [4] is Aβ1-42-induced AD mice. As to the kind of experiment: Passive avoidance test. It counts as in vivo, ICR male mice.
Source text: as §1, §2, §3
The passive avoidance experiment is a commonly used method for assessing enhancements in learning and memory capabilities. The experiment was conducted in a room with noise levels below 60 dB and dim lighting. The measuring instrument, Shuttle Box Test Package (Med Associates Inc., Vermont, USA), consisting of two rooms of equal size (25 × 25 cm). An automatic guillotine door was installed on the wall separating the two rooms. One room was illuminated (20 W light bulb), while the other remained dark. The mice were trained to associate the dark environment with an aversive stimulus. In the experiment (n = 3), upon entry into the dark room, an electric shock (foot-shock) was administered by passing a current of 3 mA for 5 s through a stainless-steel grid beneath the room. This procedure facilitated the mouse's recognition of the association between the dark environment and the aversive stimulus.

For data set [5], the system named is acetylcholine (ACh). As to the kind of experiment: Brain tissue acetylcholine (ACh) level. Set-up: species or system ICR male mice. The following applies: mouse, in vivo.
Source text: as §1, §2, §3

Data set [6] has as its target acetylcholinesterase (AChE) (Mus musculus, UniProt P21836). The following applies: SFN 10 mg/kg oral. How it is done:
All efforts were made to minimize suffering and the number of animals used. One day before dissection, only water was provided and food was fasted. Acclimatized experimental animals were grouped into seven containing 7 mice each (Table 1 and Fig. 1).
as §2, §3

Data set [7] can be described thus: In vivo oral absorption of SFN and BSE in rats (pharmacokinetics). The following applies: for AUCinf / AUClast / Cmax / MRT / T1/2 / Tmax: plasma SFN. Set-up: species or system Sprague–Dawley rats. How it is done:
Sprague–Dawley rats (males, 6–7 weeks old, 200–250 g) were purchased from G-bio (Gwangju, Republic of Korea). The animals were housed under standard conditions in terms of temperature (23 ± 2 °C), relative humidity (RH; 55 ± 10 %), and light (12/12 h light/dark cycle). The animals had ad libitum access to a standard laboratory diet (Nestlé Purina PetCare Research, St. Louis, MO, USA) and ion-sterilized tap water. Ethical approval for this study was obtained from the IACUC of Mokpo National University (Jeonnam, Republic of Korea; approval no. MNU-IACUC-2023-009).
To examine the distinction of pharmacokinetic parameters of SFN after IV injection and oral administration of SFN or BSEP (containing 3 % SFN), Sprague–Dawley rats were orally administered 400 μL of SFN dissolved in 0.5 % sodium CMC (5 mg/kg, SFN-oral) or aqueous solution of BSEP (equivalent to 5 mg/kg SFN, BSEP-oral). To calculate the oral bioavailability, rats were intravenously injected with 200 μL of SFN (5 mg/kg SFN dissolved in 0.5 % sodium CMC) via the femoral vein. Then, 200-μL blood samples were collected from the cannulated femoral artery at predetermined time points and immediately centrifuged at 13,000×g for 5 min at 4 °C. The separated plasma samples were kept frozen at −80 °C until analysis.
To determine the plasma concentrations of SFN, the working solutions of SFN of 20, 15, 10, 5, 2, 1, 0.6, and 0.2 μg/mL, and 5 μg/mL phenylethyl isothiocyanate (internal standard, IS) were prepared in acetonitrile. Then, 10 μL of each working solution and 10 μL of IS were spiked with 180 μL of rat blank plasma for standard solution. Separately, 180 μL of each plasma sample was spiked with 10 μL of IS solution and 10 μL of acetonitrile. Next, 200 μL of a mixture of acetonitrile, water, and ethanol (25:25:50, v/v/v) was added to each plasma sample spiked with IS, followed by vortex mixing. After centrifugation at 13,000×g for 5 min at room temperature, the supernatant was transferred to another vial for further extraction using an HLB SPF μElution plate (Waters Corp., Milford, MA, USA). Each well of the SPE plate was conditioned and equilibrated by 200 μL of methanol and water, respectively. Then, the 400 μL of the collected supernatant was added to each well of the plate and aspirated under a 5 H g vacuum. After washing with 200 μL of water and 50 % methanol, each well was eluted with 400 μL (200 μL × 2 times) of acetonitrile.
Each eluted sample (10 μL) was injected into a UPLC system (ACQUITY UPLC; Waters Corp.) equipped with an ACQUITY UPLC BEH C18 column (2.1 × 50 mm, 1.7 μm; Waters Corp.) at 50 °C. SFN and IS were eluted by the mobile phase (10 mM ammonium acetate in water:0.1 % formic acid in acetonitrile [3:7, v/v]) at a flow rate of 0.6 mL/min. A mass spectrometer (Xevo TQ-S; Waters Corp.) was used for ionization of SFN or the IS (in positive ion multiple reaction-monitoring mode) at an electrospray voltage of 3.0 kV, with a source temperature of 120 °C, desolvation temperature of 500 °C, and desolvation gas flow rate of 800 L/h. SFN quantification was performed by reference to the m/z transition 178.0 → 114.0 at a cone voltage of 24 V and collision energy of 30 eV; for IS, the m/z transition was 164.0 → 130.0 at a cone voltage of 23 V and collision energy of 22 eV.

Data set [8] relates to Aβ1-42-induced AD mice. As to the kind of experiment: Retention test of Morris water maze. It counts as in vivo. The following applies: 60 s free swimming, platform removed, control group 9.51 ± 5.2. On the procedure:
as §4

The conditions of data set [9]: cited from earlier work.
For data set [10] the following is noted: cited from earlier work. This is another data set of the same source.
The conditions of data set [11]: rodents, within a few hours post-administration, oral or intraperitoneal; cited from earlier work.
For data set [12] the following is noted: following the consumption of broccoli sprouts or supplements; cited from earlier work.
[13] abbreviates: single oral dose 5 mg/kg SFN (SFN in 0.5 % sodium CMC; BSEP aqueous solution equivalent to 5 mg/kg SFN).

For orientation: Cmax means the highest concentration seen after dosing. One may read the MRT as a mean duration of stay, worked out from the concentration-time curve. As usually defined, the Tmax is the time from dosing to the highest level.

Sequence of acetylcholinesterase (AChE) (P21836 32-614): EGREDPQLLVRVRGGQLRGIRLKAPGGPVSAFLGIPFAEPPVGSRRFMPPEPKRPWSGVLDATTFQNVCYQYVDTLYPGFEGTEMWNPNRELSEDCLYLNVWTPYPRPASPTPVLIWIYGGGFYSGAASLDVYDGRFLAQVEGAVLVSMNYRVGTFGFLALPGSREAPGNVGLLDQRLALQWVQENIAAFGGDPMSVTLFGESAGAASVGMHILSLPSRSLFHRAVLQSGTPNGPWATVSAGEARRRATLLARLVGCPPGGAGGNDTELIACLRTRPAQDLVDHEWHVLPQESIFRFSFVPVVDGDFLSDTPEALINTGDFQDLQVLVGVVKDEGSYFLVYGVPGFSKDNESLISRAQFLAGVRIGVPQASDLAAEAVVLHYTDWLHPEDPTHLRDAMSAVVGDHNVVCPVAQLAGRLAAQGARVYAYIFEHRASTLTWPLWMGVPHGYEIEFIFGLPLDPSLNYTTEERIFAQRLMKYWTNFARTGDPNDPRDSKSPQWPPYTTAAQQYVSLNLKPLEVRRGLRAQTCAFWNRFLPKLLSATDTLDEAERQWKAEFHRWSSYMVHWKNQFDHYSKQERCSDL

“1-isothiocyanato-4-methylsulfonylbutane [SFN]”: in [1] (1:100 dilution (of SFN 210 ppm; of 1 % BSEP)), the “reduction of TNF-α expression versus control (LPS stimulation only)” value is listed as 30–40%. For the same compound, the TNF-α gene expression entry in data set [1] (undiluted (positive control SFN 210 ppm; 1 % BSEP solution), LPS 1 μg/mL) was “significant downregulation”. The “number of TUNEL-positive cells in the hippocampus” value in data set [2] is on record as 19.0 ± 5.2 cells. In data set [3] (SFN 10 mg/kg oral), the “escape latency times by the third day” value is on record as “comparable to those of the normal control group” and the “average escape latency time over the three days” value stood at 28.01 ± 2.95 s. Further, the “time spent in the brightly lit room before entering the dark room” value in data set [4] (SFN 10 mg/kg oral, AD control 19) is given as 90 s. In data set [4] (SFN 10 mg/kg oral, AD control 51), the “time spent in the brightly lit room before entering the dark room” value worked out at 166 s. Moreover, the “time spent in the brightly lit room before entering the dark room” value in data set [4] (SFN 10 mg/kg oral, first of three values, AD control 25) was 37 s. For the same compound, in data set [5], the “brain ACh level” value turned out to be 1.2 ± 0.1 nmol/µL. The “brain AChE activity relative to normal group (100 %)” value in data set [6] (AD control 162 %) is 105%. Besides, the “brain AChE activity” value in data set [6] (AD control 1707.1 ± 97.12, normal 1057.44 ± 75.41) came to 1104.65 ± 123.41 mU/mL. This compound registered a Bioavailability in data set [7] (single IV dose 5 mg/kg SFN (reference)) of 100%. In data set [7] (single IV dose 5 mg/kg SFN), this compound gave an AUCinf of 390 ± 33.7 ng·h/mL, an AUClast of 380 ± 27.5 ng·h/mL, a Cmax of 414 ± 65.1 ng/mL and an MRT of 0.971 ± 0.224 h. In data set [7] (single IV dose 5 mg/kg SFN), the T1/2 stood at 1.35 ± 0.806 h and the time of peak concentration (Tmax) was 10.2 ± 0 min. In data set [7] (setting [13]), the AUCinf is given as 259 ± 39.6 ng·h/mL, the AUClast is 241 ± 46.1 ng·h/mL, the Cmax worked out at 96.2 ± 13.1 ng/mL and the mean residence time MRT was 3.14 ± 0.835 h. For the same compound, in [7] (setting [13]), the T1/2 was determined as 1.82 ± 0.574 h and the Tmax came out at 60 ± 0 min. Further, the Bioavailability in data set [7] (single oral dose 5 mg/kg SFN (SFN in 0.5 % sodium CMC; BSEP aqueous solution equivalent to 5 mg/kg SFN), versus SFN-IV) came to 63.4 ± 12.1%. The “time spent in the quadrant where the platform was previously located” value in [8] (SFN 10 mg/kg) is 8.83 ± 5.92 s. In addition, the “doses that may lead to toxicity” value in data set [9] is “exceeding 150 mg/kg body weight”. In addition, the “typical urinary excretion, of the administered dose” value in [10] was 70−90%. For the same compound, the SFN brain concentrations in [11] is 0.5 to 2 µM. The “SFN level detected in human plasma” value in [12] is “nanomolar to low micromolar levels”.
In the case of `COc1cc2c(cc1OC)C(=O)C(CC1CCN(Cc3ccccc3)CC1)C2` (stereo not drawn) [donepezil], the “escape latency times by the third day” value in data set [3] (donepezil 5 mg/kg oral) is reported as “comparable to those of the normal control group”. Moreover, the “average escape latency time over the three days” value in [3] (donepezil 5 mg/kg oral) is given as 34.97 ± 3.21 s. Besides, the “time spent in the brightly lit room before entering the dark room” value in data set [4] (donepezil 5 mg/kg oral, AD control 19) amounted to 100 s; in data set [4] (donepezil 5 mg/kg oral, AD control 51), 149 s; in data set [4] (donepezil 5 mg/kg oral, first of three values, AD control 25), 29 s. In data set [8] (donepezil 5 mg/kg), the “time spent in the quadrant where the platform was previously located” value is listed as 16.26 ± 4.61 s.

The values are drawn from article PMC11875816 (Heliyon, 2025).
